Laboratory results from paper PMC7270141 (International Journal for Parasitology: Drugs and Drug …, 2020).
Read-outs that look alike come from different tables or passages of the source.

What was measured:
[1] = Solubility, miniaturised shake-flask method; type: physicochemical; conditions: PBS pH 6.5, 24 h at 25 °C, HPLC-DAD, unit from abstract
P. berghei = conditions: murine P. berghei, after a single oral dose; ref François et al., 1997c; cited from earlier work
[2] = system: P. falciparum multidrug-resistant W2 strain; test: SYBR Green I fluorescence assay, asexual parasite proliferation, W2 strain; type: cell-based; conditions: for Resistance Index (RI) = IC50 for W2/IC50 for NF54: W2 vs NF54
[3] = Single-point metabolic stability, mouse liver microsomes; type: in vitro ADME
[4] = Single-point metabolic stability, human liver microsomes; type: in vitro ADME
[5] = Single-point metabolic stability, rat liver microsomes; type: in vitro ADME
HepG2 cells = test: Lactate dehydrogenase; conditions: for Selectivity Index (SI) = EC50 for HepG2/IC50 for NF54: HepG2 vs NF54
Lactate dehydrogenase = conditions: human, Cytotoxicity EC50, HepG2, HepG2, LDH leakage, mean ± SEM, n ≥ 2
[6] = Plasmodium falciparum, W2, 96 h, read-out: Inhibition of parasite proliferation IC50, W2, multidrug-resistant W2, 96 h drug pressure, mean ± SEM, n ≥ 2

Structure (SMILES)	Solubility PBS (pH 6.5) [1] [μM]	Parasitaemia decreased (P. berghei) [%]	Resistance Index (RI) = IC50 for W2/IC50 for NF54 [2]	IC50 ([2]; read-out: Inhibition of parasite proliferation IC50, W2, multidrug-resistant W2, 96 h drug pressure, mean ± SEM, n ≥ 2) [µM]	% Remaining after 30 min, Mouse ([3]; 1 μM, mouse liver microsomes 0.4 mg/ml, 30 min, 37 °C) [%]	Microsomal clearance, Mouse ([3]; in vitro intrinsic clearance, mouse liver microsomes) [µL/min/mg]	% Remaining after 30 min, Human ([4]; 1 μM, human liver microsomes 0.4 mg/ml, 30 min, 37 °C) [%]	Microsomal clearance, Human ([4]; in vitro intrinsic clearance, human liver microsomes) [µL/min/mg]	% Remaining after 30 min, Rat ([5]; 1 μM, rat liver microsomes 0.4 mg/ml, 30 min, 37 °C) [%]	Microsomal clearance, Rat ([5]; in vitro intrinsic clearance, rat liver microsomes) [µL/min/mg]	Selectivity Index (SI) = EC50 for HepG2/IC50 for NF54 (HepG2 cells)	EC50 (HepG2 cells; read-out: Cytotoxicity EC50, HepG2, HepG2, LDH leakage, mean ± SEM, n ≥ 2) [µM]	IC50 [2, 6] [µM]	EC50 (Lactate dehydrogenase) [µM]	remaining at 0.5 h, 1 μM ([3]; male, CD1, mouse, liver microsomes, % Remaining after 30 min, Mouse, 1 μM, mouse liver microsomes 0.4 mg/ml, 30 min, 37 °C) [%]	remaining at 0.5 h, 1 μM ([4]; both, human, liver microsomes, % Remaining after 30 min, Human, 1 μM, human liver microsomes 0.4 mg/ml, 30 min, 37 °C) [%]	remaining at 0.5 h, 1 μM ([5]; male, IGS, rat, liver microsomes, % Remaining after 30 min, Rat, 1 μM, rat liver microsomes 0.4 mg/ml, 30 min, 37 °C) [%]
COc1cc(C)c(-c2ccc(O)c3c2C[C@@H](C)N[C@@H]3C)c2cccc(O)c12 (single isomer, unassigned) [Dioncophylline C (2a), dioncophylline C]	170	99.6	2.9	0.112 ± 0.01	95	<11.6	94	<11.6	95	<11.6	552.6	21.2 ± 4					
CCN(CC)CCCC(C)Nc1ccnc2cc(Cl)ccc12 (centres unmarked) [Chloroquine, reference compound]			29.5								2855.4		0.382 ± 0.09	37 ± 4.5			
COc1cc(CO)c(-c2ccc3c(c2O)[C@@H](C)N[C@H](C)C3)c2cccc(O)c12 [Dioncopeltine A (5), dioncopeltine A]			38.1								4890.8		0.304 ± 0.06	39 ± 13.1	< 7	98	> 99
